Assay results taken from patent US20050136079A1, “Cosmetic compositions containing fullerene clusters” (priority 2003, published 2005).

Assay: Antioxidant activity (AOA) by coulometric titration with electrogenerated bromine-based oxidants
Conditions: Coulombs spent for titration of 100 g of analyzed material; sample macerated 1:5 in water or water/alcohol
Experimental: The quantitative assessment of the antioxidant activity of the cosmetic composition containing fullerene clusters was tested utilizing bromine-based oxidants generated electrochemically.
Procedure: • 1. Electrogeneration of bromine-based oxidants and coulonometric tritration were performed with a potentiostate using 1 cm^2 platinum working electrode at a current 5 mA • 2. Bromine oxidant was generated 0.2 M KBr dissolved in 0.1M H2SO4/tartrate buffer solution, which ensure 100% yield of oxidant by current. The final point was determined amperometrically with two polarized platinum electrodes at E=20 mV. • 3. Samples for analysis in water or water/alcohol media were obtained by maceration of the mixture of a cosmetic containing the active ingredient listed in the following table and this media taken in proporation 1:5 by weight. • 4. Antioxidant activity (AOA) is expressed as amount of Coulombs spent for titration of 100 g of the analyzed starting cosmetic substance.
Bromine compounds including Br2, Br3^− and active bromo-radicals are electrochemically generated and adsorbed at the surface of the platinum electrode and then these radicals act as oxidating agents in redox reactions, reactions of electrophilic substitution and addition to double bonds e.g. in the fullerene molecules in the fullerene cluster of cosmetic composition. […]

CCCCC/C=C\C/C=C\CCCCCCCC(=O)O [Linoleic Acid without C60, Linoleic Acid]
AOA: 4.8 kCb/100 g
